Reference: patent publication US8846719B2, “Isoxazolo-pyridine derivatives” (Roche Palo Alto LLC, priority 2007, dated 2014)

Molecular target: human GABA A receptor α5β3γ2 (Homo sapiens (Human), UniProt P18507+P31644)
Assay: [3H]flumazenil competition binding assay, human GABA A α5β3γ2 receptors expressed in HEK293 cells
Conditions: human receptor; displacement of [3H]flumazenil (0.5 nM); means of two determinations; read-out: hKi GABAAa5
Outline: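 Ki values, each the mean of two runs, derive from displacement of [3H]flumazenil from human α5β3γ2 GABA A receptors transiently expressed in HEK293 membranes. Binding ran 1 h at 4° C in Krebs-tris, pH 7.5, before filter harvest and scintillation counting.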

Compound	Ki
Cc1onc(-c2ccc(Cl)cc2)c1COc1ccc(C(=O)N2CCSCC2)cn1 [Example 124, {6-[3-(4-Chloro-phenyl)-5-methyl-isoxazol-4-ylmethoxy]-pyridin-3-yl}-thiomorpholin-4-yl-methanone]	7.5 nM
COC(=O)c1ccc(OCc2c(-c3ccccc3)noc2C(F)(F)F)nc1 [Example 128, 6-(3-Phenyl-5-trifluoromethyl-isoxazol-4-ylmethoxy)-nicotinic acid methyl ester]	88.5 nM
CCNC(=O)c1ccc(OCc2c(-c3ccccc3)noc2C(F)(F)F)nc1 [Example 130, N-Ethyl-6-(3-phenyl-5-trifluoromethyl-isoxazol-4-ylmethoxy)-nicotinamide]	30.8 nM
O=C(NCCO)c1ccc(OCc2c(-c3ccccc3)noc2C(F)(F)F)nc1 [Example 131, N-(2-Hydroxy-ethyl)-6-(3-phenyl-5-trifluoromethyl-isoxazol-4-ylmethoxy)-nicotinamide]	34 nM
CC(C)NC(=O)c1ccc(OCc2c(-c3ccccc3)noc2C(F)(F)F)nc1 [Example 133, N-Isopropyl-6-(3-phenyl-5-trifluoromethyl-isoxazol-4-ylmethoxy)-nicotinamide]	41.6 nM
O=C(NC1CC1)c1ccc(OCc2c(-c3ccccc3)noc2C(F)(F)F)nc1 [Example 134, N-Cyclopropyl-6-(3-phenyl-5-trifluoromethyl-isoxazol-4-ylmethoxy)-nicotinamide]	23.8 nM
COC(=O)c1ccc(OCc2c(-c3ccc(F)cc3)noc2C(F)(F)F)nc1 [Example 136, 6-[3-(4-Fluoro-phenyl)-5-trifluoromethyl-isoxazol-4-ylmethoxy]-nicotinic acid methyl ester]	57 nM
CCNC(=O)c1ccc(OCc2c(-c3ccc(F)cc3)noc2C(F)(F)F)nc1 [Example 138, N-Ethyl-6-[3-(4-fluoro-phenyl)-5-trifluoromethyl-isoxazol-4-ylmethoxy]-nicotinamide]	33.3 nM
O=C(NCCO)c1ccc(OCc2c(-c3ccc(F)cc3)noc2C(F)(F)F)nc1 [Example 139, 6-[3-(4-Fluoro-phenyl)-5-trifluoromethyl-isoxazol-4-ylmethoxy]-N-(2-hydroxy-ethyl)-nicotinamide]	16.5 nM
O=C(NCC(F)(F)F)c1ccc(OCc2c(-c3ccc(F)cc3)noc2C(F)(F)F)nc1 [Example 140, 6-[3-(4-Fluoro-phenyl)-5-trifluoromethyl-isoxazol-4-ylmethoxy]-N-(2,2,2-trifluoro-ethyl)-nicotinamide]	57.8 nM
CC(C)NC(=O)c1ccc(OCc2c(-c3ccc(F)cc3)noc2C(F)(F)F)nc1 [Example 142, 6-[3-(4-Fluoro-phenyl)-5-trifluoromethyl-isoxazol-4-ylmethoxy]-N-isopropyl-nicotinamide]	33.5 nM
O=C(NC1CC1)c1ccc(OCc2c(-c3ccc(F)cc3)noc2C(F)(F)F)nc1 [Example 143, N-Cyclopropyl-6-[3-(4-fluoro-phenyl)-5-trifluoromethyl-isoxazol-4-ylmethoxy]-nicotinamide]	38.4 nM
O=C(c1ccc(OCc2c(-c3ccc(F)cc3)noc2C(F)(F)F)nc1)N1CCS(=O)(=O)CC1 [Example 145, (1,1-Dioxo-1λ6-thiomorpholin-4-yl)-{6-[3-(4-fluoro-phenyl)-5-trifluoromethyl-isoxazol-4-ylmethoxy]-pyridin-3-yl}-methanone]	58.9 nM
Cc1onc(-c2ccncc2)c1COc1ccc(C(=O)NCC(F)(F)F)cn1 [Example 146, 6-(5-Methyl-3-pyridin-4-yl-isoxazol-4-ylmethoxy)-N-(2,2,2-trifluoro-ethyl)-nicotinamide]	5.9 nM
Cc1onc(-c2ccncc2)c1COc1ccc(C(=O)NC2CCOCC2)cn1 [Example 150, 6-(5-Methyl-3-pyridin-4-yl-isoxazol-4-ylmethoxy)-N-(tetrahydro-pyran-4-yl)-nicotinamide]	5.6 nM
Cc1onc(-c2ccncc2)c1COc1ccc(C(=O)N2CCOCC2)cn1 [Example 151, [6-(5-Methyl-3-pyridin-4-yl-isoxazol-4-ylmethoxy)-pyridin-3-yl]-morpholin-4-yl-methanone]	84.5 nM
Cc1onc(-c2ccncc2)c1COc1ccc(C(=O)N2CCSCC2)cn1 [Example 152, [6-(5-Methyl-3-pyridin-4-yl-isoxazol-4-ylmethoxy)-pyridin-3-yl]-thiomorpholin-4-yl-methanone]	39.7 nM
Cc1onc(-c2ccncc2)c1COc1ccc(C(=O)N2CCS(=O)(=O)CC2)cn1 [Example 153, (1,1-Dioxo-1λ6-thiomorpholin-4-yl)-[6-(5-methyl-3-pyridin-4-yl-isoxazol-4-ylmethoxy)-pyridin-3-yl]-methanone]	65.7 nM
COC(=O)c1ccc(OCc2c(-c3cccnc3)noc2C)nc1 [Example 154, 6-(5-Methyl-3-pyridin-3-yl-isoxazol-4-ylmethoxy)-nicotinic acid methyl ester]	53.2 nM
Cc1onc(-c2cccnc2)c1COc1ccc(C(=O)NCC2CC2)cn1 [Example 156, N-Cyclopropylmethyl-6-(5-methyl-3-pyridin-3-yl-isoxazol-4-ylmethoxy)-nicotinamide]	29.8 nM
Cc1onc(-c2cccnc2)c1COc1ccc(C(=O)NC(C)C)cn1 [Example 158, N-Isopropyl-6-(5-methyl-3-pyridin-3-yl-isoxazol-4-ylmethoxy)-nicotinamide]	31.7 nM
Cc1onc(-c2ccccc2)c1CNc1ccccn1 [Example 160, (5-Methyl-3-phenyl-isoxazol-4-ylmethyl)-pyridin-2-yl-amine]	87.3 nM

Continued, values first:

Ki	Compound
1.1 nM	Cc1onc(-c2ccc(Cl)cc2)c1COc1ccc(C(=O)NC2CC2)cn1 [Example 120, 6-[3-(4-Chloro-phenyl)-5-methyl-isoxazol-4-ylmethoxy]-N-cyclopropyl-nicotinamide]
0.8 nM	Cc1onc(-c2ccc(Cl)cc2)c1COc1ccc(C(=O)NC2CCOCC2)cn1 [Example 121, 6-[3-(4-Chloro-phenyl)-5-methyl-isoxazol-4-ylmethoxy]-N-(tetrahydro-pyran-4-yl)-nicotinamide]
2.9 nM	Cc1onc(-c2ccc(Cl)cc2)c1COc1ccc(C(=O)N2CCS(=O)(=O)CC2)cn1 [Example 122, {6-[3-(4-Chloro-phenyl)-5-methyl-isoxazol-4-ylmethoxy]-pyridin-3-yl}-(1,1-dioxo-1,6-thiomorpholin-4-yl)-methanone]
2.7 nM	Cc1onc(-c2ccc(F)c(F)c2)c1COc1ccc(C(=O)NCC(F)(F)F)cn1 [Example 125, 6-[3-(3,4-Difluoro-phenyl)-5-methyl-isoxazol-4-ylmethoxy]-N-(2,2,2-trifluoro-ethyl)-nicotinamide]
4.7 nM	Cc1onc(-c2ccc(F)c(F)c2)c1COc1ccc(C(=O)NC(C)C)cn1 [Example 126, 6-[3-(3,4-Difluoro-phenyl)-5-methyl-isoxazol-4-ylmethoxy]-N-isopropyl-nicotinamide]
2.4 nM	Cc1onc(-c2ccc(F)c(F)c2)c1COc1ccc(C(=O)NC2CCOCC2)cn1 [Example 127, 6-[3-(3,4-Difluoro-phenyl)-5-methyl-isoxazol-4-ylmethoxy]-N-(tetrahydro-pyran-4-yl)-nicotinamide]
24.3 nM	CNC(=O)c1ccc(OCc2c(-c3ccccc3)noc2C(F)(F)F)nc1 [Example 129, N-Methyl-6-(3-phenyl-5-trifluoromethyl-isoxazol-4-ylmethoxy)-nicotinamide]
28.3 nM	O=C(NCC1CC1)c1ccc(OCc2c(-c3ccccc3)noc2C(F)(F)F)nc1 [Example 132, N-Cyclopropylmethyl-6-(3-phenyl-5-trifluoromethyl-isoxazol-4-ylmethoxy)-nicotinamide]
22.1 nM	O=C(NC1CCOCC1)c1ccc(OCc2c(-c3ccccc3)noc2C(F)(F)F)nc1 [Example 135, 6-(3-Phenyl-5-trifluoromethyl-isoxazol-4-ylmethoxy)-N-(tetrahydro-pyran-4-yl)-nicotinamide]
19.8 nM	CNC(=O)c1ccc(OCc2c(-c3ccc(F)cc3)noc2C(F)(F)F)nc1 [Example 137, 6-[3-(4-Fluoro-phenyl)-5-trifluoromethyl-isoxazol-4-ylmethoxy]-N-methyl-nicotinamide]
22.5 nM	O=C(NCC1CC1)c1ccc(OCc2c(-c3ccc(F)cc3)noc2C(F)(F)F)nc1 [Example 141, N-Cyclopropylmethyl-6-[3-(4-fluoro-phenyl)-5-trifluoromethyl-isoxazol-4-ylmethoxy]-nicotinamide]
12.5 nM	O=C(NC1CCOCC1)c1ccc(OCc2c(-c3ccc(F)cc3)noc2C(F)(F)F)nc1 [Example 144, 6-[3-(4-Fluoro-phenyl)-5-trifluoromethyl-isoxazol-4-ylmethoxy]-N-(tetrahydro-pyran-4-yl)-nicotinamide]
4.1 nM	Cc1onc(-c2ccncc2)c1COc1ccc(C(=O)NCC2CC2)cn1 [Example 147, N-Cyclopropylmethyl-6-(5-methyl-3-pyridin-4-yl-isoxazol-4-ylmethoxy)-nicotinamide]
7.1 nM	Cc1onc(-c2ccncc2)c1COc1ccc(C(=O)NC2CC2)cn1 [Example 148, N-Cyclopropyl-6-(5-methyl-3-pyridin-4-yl-isoxazol-4-ylmethoxy)-nicotinamide]
4.5 nM	Cc1onc(-c2ccncc2)c1COc1ccc(C(=O)NC(C)C)cn1 [Example 149, N-Isopropyl-6-(5-methyl-3-pyridin-4-yl-isoxazol-4-ylmethoxy)-nicotinamide]
24 nM	Cc1onc(-c2cccnc2)c1COc1ccc(C(=O)NCC(F)(F)F)cn1 [Example 155, 6-(5-Methyl-3-pyridin-3-yl-isoxazol-4-ylmethoxy)-N-(2,2,2-trifluoro-ethyl)-nicotinamide]
26.3 nM	Cc1onc(-c2cccnc2)c1COc1ccc(C(=O)NC2CC2)cn1 [Example 157, N-Cyclopropyl-6-(5-methyl-3-pyridin-3-yl-isoxazol-4-ylmethoxy)-nicotinamide]
27.9 nM	Cc1onc(-c2cccnc2)c1COc1ccc(C(=O)NC2CCOCC2)cn1 [Example 159, 6-(5-Methyl-3-pyridin-3-yl-isoxazol-4-ylmethoxy)-N-(tetrahydro-pyran-4-yl)-nicotinamide]
